Measured values reported in US11117890B2, “Substituted isoindole allosteric EGFR inhibitors” (Hoffmann-La Roche Inc., priority 2017, dated 2021).
Structures can show the parent of a compound that is named as a salt.

target: T1, Phospho-EGFR in H1975 cell line (Homo sapiens, UniProt P00533, L858R/T790M); assay: HTRF Phospo EGFR Assay (Cellular); assay type: cell-based; settings: H1975 cells; 6 hours compound incubation in starving medium; HTRF anti-Phospho-EGFR readout
T1 construct: H1975 cell line was obtained from American Type Culture Collection; host or cells: H1975
T1 sequence (P00533 25-1210 T790M/L858R): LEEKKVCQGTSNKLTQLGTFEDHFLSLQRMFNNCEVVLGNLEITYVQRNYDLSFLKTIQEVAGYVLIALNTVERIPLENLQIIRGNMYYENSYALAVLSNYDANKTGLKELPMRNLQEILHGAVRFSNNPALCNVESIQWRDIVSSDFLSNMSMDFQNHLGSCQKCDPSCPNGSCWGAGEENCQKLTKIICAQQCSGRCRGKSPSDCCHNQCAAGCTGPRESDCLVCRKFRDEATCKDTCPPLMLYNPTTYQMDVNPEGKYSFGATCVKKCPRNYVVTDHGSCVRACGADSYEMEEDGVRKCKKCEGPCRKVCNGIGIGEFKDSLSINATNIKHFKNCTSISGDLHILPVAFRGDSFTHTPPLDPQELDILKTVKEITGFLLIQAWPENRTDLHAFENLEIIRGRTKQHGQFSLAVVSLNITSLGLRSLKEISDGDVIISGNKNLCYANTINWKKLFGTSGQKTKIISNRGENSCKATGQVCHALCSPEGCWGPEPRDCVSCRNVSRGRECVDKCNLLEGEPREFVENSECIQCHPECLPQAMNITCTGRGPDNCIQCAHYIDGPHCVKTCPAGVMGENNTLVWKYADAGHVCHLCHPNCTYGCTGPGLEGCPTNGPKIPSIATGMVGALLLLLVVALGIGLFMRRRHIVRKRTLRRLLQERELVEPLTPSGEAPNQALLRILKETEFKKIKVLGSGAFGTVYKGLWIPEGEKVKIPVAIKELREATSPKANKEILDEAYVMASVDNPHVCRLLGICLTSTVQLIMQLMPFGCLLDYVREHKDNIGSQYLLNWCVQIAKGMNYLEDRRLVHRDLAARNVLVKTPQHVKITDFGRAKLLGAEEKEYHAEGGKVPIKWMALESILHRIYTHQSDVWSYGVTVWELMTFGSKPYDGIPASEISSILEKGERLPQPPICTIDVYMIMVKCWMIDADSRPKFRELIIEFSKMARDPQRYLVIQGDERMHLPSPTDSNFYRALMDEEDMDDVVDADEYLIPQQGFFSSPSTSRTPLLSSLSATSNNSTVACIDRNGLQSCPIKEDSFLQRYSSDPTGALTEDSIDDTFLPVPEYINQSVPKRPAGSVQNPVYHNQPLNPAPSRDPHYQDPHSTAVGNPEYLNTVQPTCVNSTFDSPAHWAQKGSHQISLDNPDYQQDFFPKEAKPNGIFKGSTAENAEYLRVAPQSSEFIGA
Method: HTRF Phospo EGFR Assay (Cellular)
H1975 cell line was obtained from American Type Culture Collection (Manassas, Va., USA). Cells were maintained at 37° C., 5% CO2 in complete Media RPMI 1640 without phenol red containing 0.3 mg/ml glutamine, 100 IU/ml penicillin, and […] (Gibco) supplemented with 10% fetal bovine serum (FBS) (Gibco). Compounds were diluted into starving medium RPMI 1640 Media without phenol red containing 0.3 mg/ml glutamine, 100 IU/ml penicillin, and […] (Gibco).
Cells were cultured overnight in a 384-well white plate (8000 cells/well) using 8 μl of complete medium/well. Cells were washed two times with 20 μl of starving medium. Media was removed by tapping plates on tissue and subsequently 8 μl of fresh starving medium/well was added. Then 4 μl/well of the 3×compound solution, containing a half-log dilution series of the compound or DMSO in starving medium, were added to the cells. After 6 hours at 37° C., 5% CO2 cells were lysed by adding to the compound mix 4 μl/well of the supplemented lysis buffer, followed by incubation for 30 min at room temperature with shaking. Lysates were stored at −20° C. overnight. The following day plates were thawed and 2 μl of anti-Phospho-EGFR Cryptate and 2 μl of anti-Phospho-EGFR-d2 antibody solutions prepared in the detection buffer were added. The plates were then incubated for at least 4 h at room temperature before reading the fluorescence emission at 620 and 665 nm using PHERAstar FX plate reader (BMG Labtech).

SMILES	IC50 [nM]
Nc1ccc(C#Cc2ccc3c(c2)C(=O)N(C(C(=O)Nc2nccs2)c2n[nH]c4c2CCC4)C3)cn1 (racemic) [Example 8, (2RS)-2-[6-[2-(6-Amino-3-pyridyl)ethynyl]-1-oxo-isoindolin-2-yl]-2-(1,4,5,6-tetrahydrocyclopenta[c]pyrazol-3-yl)-N-thiazol-2-yl-acetamide]	1.9
Nc1ccc(C#Cc2ccc3c(c2)C(=O)N(C(C(=O)Nc2nccs2)c2cc(F)ccc2O)C3)cn1 (racemic) [Example 15, (2RS)-2-[6-[2-(6-Amino-3-pyridyl)ethynyl]-1-oxo-isoindolin-2-yl]-2-(5-fluoro-2-hydroxy-phenyl)-N-thiazol-2-yl-acetamide]	1
CNC(=O)c1ccc(C#Cc2ccc3c(c2)C(=O)N(C(C(=O)Nc2nccs2)c2ccccc2)C3)cn1 (racemic) [Example 9, N-Methyl-5-[2-[3-oxo-2-[(1RS)-2-oxo-1-phenyl-2-(thiazol-2-ylamino)ethyl]isoindolin-5-yl]ethynyl]pyridine-2-carboxamide]	16
O=C(Nc1nccs1)C(c1ccccc1)N1Cc2ccc(C#Cc3ccc(CN4CCOCC4)cc3)cc2C1=O (racemic) [Example 11, (2RS)-2-[6-[2-[4-(Morpholinomethyl)phenyl]ethynyl]-1-oxo-isoindolin-2-yl]-2-phenyl-N-thiazol-2-yl-acetamide]	61
Nc1ccc(C#Cc2ccc3c(c2)C(=O)N(C(C(=O)Nc2ccccn2)c2cc(F)ccc2O)C3)cn1 (racemic) [Example 20, (2RS)-2-[6-[2-(6-Amino-3-pyridyl)ethynyl]-1-oxo-isoindolin-2-yl]-2-(5-fluoro-2-hydroxy-phenyl)-N-(2-pyridyl)acetamide]	4
O=C(Nc1nccs1)C(c1cc(F)ccc1O)N1Cc2ccc(C#Cc3ccc(CN4CCC(O)CC4)cc3)cc2C1=O (racemic) [Example 28, (2RS)-2-(5-Fluoro-2-hydroxy-phenyl)-2-[6-[2-[4-1(4-hydroxy-1-piperidyl)methyl]phenyllethynyl]-1-oxo-isoindolin-2-yl]-N-thiazol-2-yl-acetamide]	7
CC(=O)Nc1ccc(C#Cc2ccc3c(c2)C(=O)N(C(C(=O)Nc2nccs2)c2ccccc2)C3)cn1 (racemic) [Example 7, (2RS)-2-[6-[2-(6-Acetamido-3-pyridyl)ethynyl]-1-oxo-isoindolin-2-yl]-2-phenyl-N-thiazol-2-yl-acetamide]	10
Nc1ccc(C#Cc2ccc3c(c2)C(=O)N(C(C(=O)Nc2nccs2)c2cc(Cl)ccc2O)C3)cn1 (racemic) [Example 23, (2RS)-2-[6-[2-(6-Amino-3-pyridyl)ethynyl]-1-oxo-isoindolin-2-yl]-2-(5-chloro-2-hydroxy-phenyl)-N-thiazol-2-yl-acetamide]	4
Cc1c(C#Cc2ccc(N)nc2)ccc2c1C(=O)N(C(C(=O)Nc1ccccn1)c1cc(F)ccc1O)C2 (racemic) [Example 22, (2RS)-2-[6-[2-(6-Amino-3-pyridyl)ethynyl]-7-methyl1-oxo-isoindolin-2-yl]-2-(5-fluoro-2-hydroxy-phenyl)-N-(2-pyridyl)acetamide]	3
Nc1ccc(C#Cc2ccc3c(c2)C(=O)N(C(C(=O)Nc2nccs2)c2ncccc2O)C3)cn1 (racemic) [Example 25, (2RS)-2-[6-[2-(6-Amino-3-pyridyl)ethynyl]-1-oxo-isoindolin-2-yl]-2-(3-hydroxy-2-pyridyl)-N-thiazol-2-yl-acetamide trifluoroacetate]	2
O=C(Nc1nccs1)C(c1cc(F)ccc1O)N1Cc2ccc(C#Cc3cccnc3)c(F)c2C1=O (racemic) [Example 26, (2RS)-2-(5-Fluoro-2-hydroxy-phenyl)-2-[7-fluoro-1-oxo-6-[2-(3-pyridyl)ethynyl]isoindolin-2-yl]-N-thiazol-2-yl-acetamide]	2
Nc1ccc(C#Cc2ccc3c(c2)C(=O)N(C(C(=O)Nc2nccs2)c2ccccc2O)C3)cn1 (racemic) [Example 24, (2RS)-2-[6-[2-(6-Amino-3-pyridyl)ethynyl]-1-oxo-isoindolin-2-yl]-2-(2-hydroxyphenyl)-N-thiazol-2-yl-acetamide]	4
O=C(Nc1nccs1)C(c1ccccc1)N1Cc2ccc(C#Cc3ccc(C(=O)N4CCOCC4)nc3)cc2C1=O (racemic) [Example 14, (2RS)-2-[6-[2-[6-(Morpholine-4-carbonyl)-3-pyridyl]ethynyl]-1-oxo-isoindolin-2-yl]-2-phenyl-N-thiazol-2-yl-acetamide]	51
O=C(Nc1nccs1)C(c1cc(F)ccc1O)N1Cc2ccc(C#Cc3cccnc3)cc2C1=O (racemic) [Example 16, (2RS)-2-(5-Fluoro-2-hydroxy-phenyl)-2-[1-oxo-6-[2-(3-pyridyl)ethynyl]isoindolin-2-yl]-N-thiazol-2-yl-acetamide]	1
CC(=O)N1CCN(Cc2ccc(C#Cc3ccc4c(c3)C(=O)N(C(C(=O)Nc3nccs3)c3ccccc3)C4)cc2)CC1 (racemic) [Example 12, (2RS)-2-[6-[2-[4-[(4-acetylpiperazin-1-yl)methyl]phenyl]ethynyl]-1-oxo-isoindolin-2-yl]-2-phenyl-N-thiazol-2-1-acetamide]	14
CCN1CCN(Cc2ccc(C#Cc3ccc4c(c3)C(=O)N(C(C(=O)Nc3nccs3)c3ccccc3)C4)cc2)CC1 (racemic) [Example 13, (2RS)-2-[6-[2-[4-[(4-Ethylpiperazin-1-yl)methyl]phenyl]ethynyl]-1-oxo-isoindolin-2-yl]-2-phenyl-N-thiazol-2-yl-acetamide]	69
O=C(Nc1nccs1)C(c1ccccc1)N1Cc2ccc(C#Cc3ccc(CN4CCNCC4)cc3)cc2C1=O (racemic) [Example 10, (2RS)-2-[1-Oxo-6-[2-[4-(piperazin-1-ylmethyl)phenyl]ethynyl]isoindolin-2-yl]-2-phenyl-N-thiazol-2-yl-acetamide hydrochloride]	43
O=C(Nc1nccs1)C(c1cc(F)ccc1O)N1Cc2ccc(C#Cc3ccnc(Cl)c3)cc2C1=O (racemic) [Example 19, (2RS)-2-[6-[2-(2-Chloro-4-pyridyl)ethynyl]-1-oxo-isoindolin-2-yl]-2-(5-fluoro-2-hydroxy-phenyl)-N-thiazol-2-yl-acetamide]	3
O=C(Nc1nccs1)C(c1cc(F)ccc1O)N1Cc2ccc(C#Cc3ccc(CN4CCOCC4)cc3)cc2C1=O (racemic) [Example 27, (2RS)-2-(5-Fluoro-2-hydroxy-phenyl)-2-[6-[2-[4-(morpholinomethyl)phenyl]ethynyl]-1-oxo-isoindolin-2-yl]-N-thiazol-2-yl-acetamide]	5
CN1CCN(Cc2ccc(C#Cc3ccc4c(c3)C(=O)N(C(C(=O)Nc3nccs3)c3cc(F)ccc3O)C4)cc2)CC1 (racemic) [Example 30, (2RS)-2-(5-Fluoro-2-hydroxy-phenyl)-2-[6-[2-[4-1(4-methylpiperazin-1-yl)methyl]phenyl]ethynyl]-1-oxo-isoindolin-2-yll-N-thiazol-2-yl-acetamide]	7
O=C(Nc1nccs1)C(c1ccccc1)N1Cc2ccc(C#Cc3ccccc3)cc2C1=O (racemic) [Example 1, (2RS)-2-[1-Oxo-6-(2-phenylethynyl)isoindolin-2-yl]-2-phenyl-N-thiazol-2-yl-acetamide]	45
Nc1ccc(C#Cc2ccc3c(c2)C(=O)N(C(C(=O)Nc2nccs2)c2cc(F)ccc2F)C3)cn1 (racemic) [Example 5, (2RS)-2-[6-[2-(6-Amino-3-pyridyl)ethynyl]-1-oxo-isoindolin-2-yl]-2-(2,5-difluorophenyl)-N-thiazol-2-yl-acetamide]	7
CCN1CCN(Cc2ccc(C#Cc3ccc4c(c3)C(=O)N(C(C(=O)Nc3nccs3)c3cc(F)ccc3O)C4)cc2)CC1 (racemic) [Example 31, (2RS)-2-[6-[2-[4-1(4-Ethylpiperazin-1-yl)methyl]phenyl]ethynyl1-1-oxo-isoindolin-2-yl]-2-(5-fluoro-2-hydroxy-phenyl)-N-thiazol-2-yl-acetamide]	7
NCc1ccc(C#Cc2ccc3c(c2)C(=O)N(C(C(=O)Nc2nccs2)c2ccccc2)C3)cc1 (racemic) [Example 6, (2RS)-2-[6-[2-[4-(Aminomethyl)phenyl]ethynyl]-1-oxo-isoindolin-2-yl]-2-phenyl-N-thiazol-2-yl-acetamide]	35
Cc1c(C#Cc2ccc(N)nc2)ccc2c1C(=O)N(C(C(=O)Nc1nccs1)c1cc(F)ccc1O)C2 (racemic) [Example 21, (2RS)-2-[6-[2-(6-Amino-3-pyridyl)ethynyl]-7-methyl-1-oxo-isoindolin-2-yl]-2-(5-fluoro-2-hydroxy-phenyl)-N-thiazol-2-yl-acetamide]	3
O=C(Nc1nccs1)C(c1ccccc1)N1Cc2ccc(C#Cc3cccnc3)cc2C1=O (racemic) [Example 2, (2RS)-2-[1-oxo-6-[2-(3-pyridyl)ethynyl]isoindolin-2-yl]-2-phenyl-N-thiazol-2-yl-acetamide]	42
Nc1ccc(C#Cc2ccc3c(c2)C(=O)N(C(C(=O)Nc2nccs2)c2ccccc2)C3)cn1 (racemic) [Example 3, (2RS)-2-[6-[2-(6-Amino-3-pyridyl)ethynyl]-1-oxo-isoindolin-2-yl]-2-phenyl-N-thiazol-2-yl-acetamide]	32
